Results reported in patent US12678440B2, “Compositions and methods for treating misfolded protein ocular disorders” (CASE WESTERN RESERVE UNIVERSITY, priority 2020, dated 2026).

How the values were obtained:
[1] = Estimated initial vitreous concentration after IVI; conditions: mouse vitreous volume about 5.3 μL
Rho^P23H/+ mice = assay: Electroretinogram (ERG) after intravitreal injection; format: in vivo, mouse
Description: The C57BL/6J (Rho^+/+) mice and Rho^P23H/P23H mice were purchased from Jackson Laboratory (Stock No 017628) generated by Dr. Krzysztof Palczewski's lab. The Rho^P23H/P23H mice were crossed with wild-type C57BL/6J mice to produce P23H heterozygotes mice. Genotyping for all strains was conducted as guided using forward and reverse primers: 1) GGTAGCACTGTTGGGCATCT (SEQ ID NO: 5); and 2) GACCCCACAGAGACAAGCTC (SEQ ID NO: 6), respectively. The PCR products at 573 and 399 bp indicated the P23H knock-in mutant and WT allele of the RHO gene, respectively. Mice were bred and housed under standard 12-h light/12-h dark conditions in the University of Pittsburgh animal facility. All animal experiments were approved by the University of Pittsburgh Institutional Animal Care and Use Committee (IACUC) following the guide for the Animal Welfare Act and Regulations.
To determine the effect of compounds on retina in vivo, we administered compounds directly into the vitreous space. Briefly, mice were treated with 1% tropicamide eye drops (Akorn, Lake Forest, IL USA) to dilate the pupils and then they were anesthetized with an intraperitoneal injection of ketamine (Henry Schein, Dublin, OH USA) at 80 mg/kg body weight (bw) and xylazine (Bimeda, Le Sueur, MN USA) at 7 mg/kg bw. One drop of 0.5% tetracaine hydrochloride (TCI, Tokyo, Japan) was applied to mouse eyes as topical anesthetics before injection. Eyes were kept lubricated during the injections by a 0.3% hypromellose eye gel (Alcon, Fort Worth, TX USA). A heating pad was used for maintaining body temperature. Mice were positioned to expose the sclera of the eyes. A 30-gauge needle (Medline, Northfield, IL USA) was used to puncture a hole through sclera behind limbus at a 45° angle. A 33-gauge blunt-end needle (Hamilton, Reno, NV USA) was used to be inserted into the hole and a total of 0.5 μL of sterile PBS or MTX in PBS was slowly injected into the posterior chamber and the needle was kept in place for about 30 seconds before a slow removal of the needle. A small amount of Triantibiotic ointment (Medline, Northfield, IL USA) was applied on the injection site to prevent infection. A single IVI with 25 or 100 pmol of MTX was administered to one eye of each Rho^P23H/+ mice at postnatal day (PND) 15, and PBS was injected to the other eye as vehicle control. We also performed four weekly IVIs of MTX or PBS to the second group of Rho^P23H/+ mouse eyes at PND 15, 22, 29 and 36.
ERG was performed using the Celeris system (Diagnosys, Lowell, MA, USA), as described previously. Before each test, mice were kept in the dark overnight. Pupils were dilated with 1% tropicamide (Akorn, Lake Forest, IL, USA). Mice were anesthetized with an intraperitoneal injection of ketamine at 80 mg/kg bw and xylazine at 7 mg/kg bw. Eyes were lubricated by a 0.3% hypromellose eye gel (Alcon, Fort Worth, TX, USA). A heating pad was used to maintain body temperature at 37° C. Scotopic ERG responses of dark-adapted eyes to ten flashes from 0.01 cd·s/m^2 to 30 cd·s/m^2 were recorded and averaged from three sweeps per flash intensity with inter-sweep intervals of 10 to 30 s. After exposed to 10 cd/m^2 illumination for 5 min, the photopic ERG responses were recorded from the light-adapted eyes in respond to flashes from 0.01 cd·s/m^2 to 30 cd·s/m^2 in addition to a 10 cd/m^2 background light. P-values were calculated by a two-way ANOVA to determine the statistical significance between the response amplitudes in the MTX-treated and vehicle (PBS) group. Factor 1, treatment condition; and factor 2, flash intensity.

rabbits = conditions: 1.76 μmol MTX (about 1 mM in vitreous); cited from earlier work
[2] = tested on: SQSTM1/p62 and LC3-II in retinae of Rho^P23H/+ knock-in mice; assay: Autophagy flux in retinae after intravitreal injection (immunoblots of SQSTM1/p62 and LC3); format: in vivo, mouse; conditions: 25 pmol IVI at PND 15, 48 h, vs PBS
Description: Cells were seeded in 6-well plates at a density of 5×10^5 cells/well and cultured at 37° C. with 5% CO2 for 17 h. The medium was replaced with a fresh medium containing a corresponding concentration of compounds. After treatment for 24 h, cells collected and lysed in 150 μL PBS containing 0.1% SDS and complete protease inhibitor cocktail with 12 s of sonication on ice. Retina samples were lysed in 300 μL per retina of PBS containing 0.1% SDS and complete protease inhibitor cocktail under 24 s of sonication on ice. Protein concentrations were determined by measurements of OD280 nm using a Nanodrop spectrometer. To immunoblot rhodopsin, one hundred μg of total protein for NIH3T3 (RHO^P23H/GFP) cells, or twenty μg of total protein for NIH3T3 (RHO^WT/GFP) cells was loaded per well onto an SDS-PAGE gel. To detect other proteins, fifty μg of total protein was loaded per well. After separation by electrophoresis in 10% and 16% SDS-PAGE gels, proteins were transferred to a nitrocellulose membrane using a wet membrane electrotransfer cassette followed by blocking with 5% bovine serum albumin in PBS containing 0.05% Tween 20 for 1 h. The membranes were incubated with primary antibodies at 4° C. overnight following with appropriate secondary antibodies for 1 h at room temperature. […]

[3] = single IVI 25 pmol at PND 15, ERG at PND 32, vs PBS or non-treated
[4] = single IVI 100 pmol at PND 15, ERG at PND 32

CN(Cc1cnc2nc(N)nc(N)c2n1)c1ccc(C(=O)N[C@@H](CCC(=O)O)C(=O)O)cc1 [CL-009, N-[4-[[(2,4-diamino-6-pteridinyl)methyl]methylamino]benzoyl]-L-glutamic acid]
vitreous concentration ([1]; 25 pmol IVI): about 4.7 μM
initial vitreous concentration ([1]; 100 pmol IVI): 18.9 µM
multi-flash scotopic and photopic b-waves (Rho^P23H/+ mice; four weekly IVIs from PND 15, ERG at PND 44, vs PBS): significantly increased
photopic b-waves (Rho^P23H/+ mice; four weekly IVIs of 100 pmol, vs PBS, at higher flash intensities): higher
multi-flash scotopic ERG a- and b-waves (Rho^P23H/+ mice; [3]): significantly higher
photopic ERG responses (Rho^P23H/+ mice; [3]): higher
multi-flash scotopic ERG a- and b-waves (Rho^P23H/+ mice; [4]): no effect
photopic ERG responses (Rho^P23H/+ mice; [4]): did not show any effects
ratio of scotopic and photopic b- to a-wave amplitudes (Rho^P23H/+ mice; single IVI 25 or 100 pmol): not affected
retinal damage after intravitreal injection (rabbits): Retinal damages were observed
LC3-II level in retinae [2]: increase
SQSTM1/p62 level in retinae [2]: decrease
